Data reported in the supplement of paper PMC10307832.

Legend:
Assay in all cases: relative viability (nuclei count vs DMSO), 5 days (fraction); higher = more cells survive
[1] = compound: CC1=CC=C(C=C1)C(=O)CN2C3=C(CCCC3)SC2=N [Pifithrin_alpha] + Cc1nc(NC(=O)N2CCC[C@H]2C(N)=O)sc1-c1ccnc(C(C)(C)C(F)(F)F)c1 [Alpelisib] (partner 2 µM)
In short: (§1)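 For relative viability, nuclei counts in treated wells were divided by those in vehicle wells. Lung cancer cell lines had been pin-tool dosed in 1536-well plates the day after seeding and cultured for 5 days, then fixed and stained in one step (final 0.05% Triton X-100, 1% formaldehyde, 1 ug/ml Hoechst) and imaged at 4×. Doses were one drug alone or a fixed anchor-drug dose plus five library-drug doses (not always all listed) in √10 steps, and values are duplicate-plate medians.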

Axitinib + Trametinib = compound: CNC(=O)c1ccccc1Sc1ccc2c(/C=C/c3ccccn3)n[nH]c2c1 [Axitinib] + CC(=O)Nc1cccc(-n2c(=O)n(C3CC3)c(=O)c3c(Nc4ccc(I)cc4F)n(C)c(=O)c(C)c32)c1 [Trametinib] (partner 0.02 µM)
In short: as §1

Axitinib + Olaparib = compound: CNC(=O)c1ccccc1Sc1ccc2c(/C=C/c3ccccn3)n[nH]c2c1 [Axitinib] + O=C(c1cc(Cc2n[nH]c(=O)c3ccccc23)ccc1F)N1CCN(C(=O)C2CC2)CC1 [Olaparib] (partner 8 µM)
In short: as §1

Bemcentinib + Lapatinib = compound: Nc1nc(Nc2ccc3c(c2)CC[C@@H](N2CCCC2)CC3)nn1-c1cc2c(nn1)-c1ccccc1CCC2 [Bemcentinib] + CS(=O)(=O)CCNCc1ccc(-c2ccc3ncnc(Nc4ccc(OCc5cccc(F)c5)c(Cl)c4)c3c2)o1 [Lapatinib] (partner 2 µM)
In short: as §1

Cell Line	relative viability ([1]; first compound 1 µM)	relative viability ([1]; first compound 3.162 µM)	relative viability ([1]; first compound 10 µM)	relative viability ([1]; first compound 31.62 µM)	relative viability ([1]; first compound 100 µM)	relative viability (Axitinib + Trametinib; first compound 0.005 µM)	relative viability (Axitinib + Trametinib; first compound 0.01581 µM)	relative viability (Axitinib + Trametinib; first compound 0.05 µM)	relative viability (Axitinib + Trametinib; first compound 0.1581 µM)	relative viability (Axitinib + Trametinib; first compound 0.5 µM)	relative viability (Axitinib + Olaparib; first compound 0.005 µM)	relative viability (Axitinib + Olaparib; first compound 0.01581 µM)	relative viability (Axitinib + Olaparib; first compound 0.05 µM)	relative viability (Axitinib + Olaparib; first compound 0.1581 µM)	relative viability (Axitinib + Olaparib; first compound 0.5 µM)	relative viability (Bemcentinib + Lapatinib; first compound 0.04 µM)	relative viability (Bemcentinib + Lapatinib; first compound 0.1265 µM)	relative viability (Bemcentinib + Lapatinib; first compound 0.4 µM)	relative viability (Bemcentinib + Lapatinib; first compound 1.265 µM)	relative viability (Bemcentinib + Lapatinib; first compound 4 µM)
NCI-H1437	1.12	1.01	0.933	0.749	0.989	0.634	0.488	0.557	0.554	0.519	0.677	0.623	0.62	0.611	0.629	0.798	0.764	0.854	0.771	0.882
NCI-H1651	0.884	0.933	0.908	0.685	0.989	0.9	0.84	0.744	0.797	0.826	0.194	0.19	0.198	0.175	0.206	0.836	0.979	1.1	0.815	0.822
NCI-H1666	0.771	0.577	0.527	0.479	0.352	0.904	0.868	0.863	0.847	0.873	0.741	0.756	0.7	0.765	0.728	0.668	0.813	0.599	0.649	0.606
NCI-H1734	0.75	0.699	0.638	0.576	0.682	0.676	0.549	0.608	0.686	0.669	0.593	0.571	0.62	0.585	0.747	1.11	1.08	1.12	1.03	1.04
NCI-H1755	0.99	0.93	0.942	0.75	1.02	0.806	0.764	0.786	0.822	0.789	0.897	0.867	0.852	0.847	0.852	1.11	1.23	1.01	0.996	1.01
NCI-H1792	0.688	0.67	0.485	0.469	0.657	0.618	0.363	0.499	0.494	0.498	0.458	0.445	0.576	0.485	0.651	0.899	0.855	1.11	0.969	0.896
NCI-H1793	0.752	0.68	0.839	0.73	0.538	0.382	0.374	0.469	0.408	0.447	1	0.715	0.874	0.793	1.05	0.488	0.621	0.693	0.582	0.75
NCI-H1915	0.979	1.11	1.05		1.12	0.34	0.299	0.312	0.298	0.33	0.28	0.255	0.243	0.234	0.284	0.958	1.07	0.979	1.09	1.05
NCI-H1944	0.866	0.762	0.72		0.75	0.562	0.388	0.451	0.39	0.434	0.469	0.397	0.384	0.402	0.427	0.794	0.909	0.817	0.883	0.887
NCI-H1975	0.58	0.445	0.385	0.346	0.299	0.44	0.361	0.325	0.348	0.328	0.822	0.816	0.859	0.774	0.805	0.962	1.02	0.894	0.79	0.853
NCI-H1993		0.692	0.757	0.568	0.607	0.433	0.373	0.535	0.503	0.506	1	1.12	1.04	1.01	1.04	0.695	0.757	0.847	0.8	0.885
NCI-H2009	1.25	1.11	1.1	0.835	0.827	0.279	0.252	0.304	0.245	0.254	0.724	0.686	0.698	0.722	0.819	0.93	1.09	0.956	0.954	0.957
NCI-H2023	0.589	0.396	0.454	0.289	0.367	0.634	0.483	0.489	0.439	0.57	0.528	0.487	0.495	0.555	0.574	0.739	0.866	0.868	0.808	0.874
NCI-H2085	0.907	0.972	0.849	0.706	0.808	0.561	0.496	0.56	0.546	0.548	0.775	0.769	0.807	0.758	0.787	0.625	0.805	0.756	0.74	0.721
